Reference: patent US11325899B2, “Benzofurane and benzothiophene derivatives as PGE2 receptor modulators” (IDORSIA PHARMACEUTICALS LTD, priority 2017, dated 2022)

Key:
PTGER4 (EP4) = molecular target: T1, PTGER4 (EP4) (Homo sapiens, UniProt P35408); experiment: hEP4 b-arrestin assay (PathHunter HEK 293 PTGER4 b-arrestin cells); assay type: cell-based; conditions: antagonistic activity, beta-arrestin assay; read-out: hEP4 b-arr IC50
T1 construct: host or cells: HEK 293 (PathHunter PTGER4 b-arrestin cell line)
In short: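 PathHunter HEK 293 cells expressing ProLink-tagged human EP4 and EA-β-arrestin 2, seeded 24 h before. Compounds (10 μM–2 nM or 1 μM–0.2 nM) preincubated 15 min at 37 °C, then 20 nM PGE2 (EC80) for 120 min at 37 °C. β-gal complementation luminescence read; IC50 from duplicate dose-response curves versus DMSO control.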

PTGER2 (EP2) = molecular target: T2, PTGER2 (EP2) (Homo sapiens, UniProt P43116); experiment: hEP2 b-arrestin assay (PathHunter HEK 293 PTGER2 b-arrestin cells); assay type: cell-based; conditions: antagonistic activity, beta-arrestin assay; read-out: hEP2 b-arr IC50
T2 construct: host or cells: HEK 293 (PathHunter PTGER2 b-arrestin cell line)
In short: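 PathHunter HEK293 cells with ProLink-tagged EP2 and EA-β-arrestin 2 preincubated 15 min at 37 °C with compound (10 μM-2 nM or 1 μM-0.2 nM), then stimulated 120 min with 5 μM PGE2 (EC80). β-gal complementation read by chemiluminescence; IC50 from duplicate dose-response versus DMSO.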

T1 sequence (P35408 whole entry): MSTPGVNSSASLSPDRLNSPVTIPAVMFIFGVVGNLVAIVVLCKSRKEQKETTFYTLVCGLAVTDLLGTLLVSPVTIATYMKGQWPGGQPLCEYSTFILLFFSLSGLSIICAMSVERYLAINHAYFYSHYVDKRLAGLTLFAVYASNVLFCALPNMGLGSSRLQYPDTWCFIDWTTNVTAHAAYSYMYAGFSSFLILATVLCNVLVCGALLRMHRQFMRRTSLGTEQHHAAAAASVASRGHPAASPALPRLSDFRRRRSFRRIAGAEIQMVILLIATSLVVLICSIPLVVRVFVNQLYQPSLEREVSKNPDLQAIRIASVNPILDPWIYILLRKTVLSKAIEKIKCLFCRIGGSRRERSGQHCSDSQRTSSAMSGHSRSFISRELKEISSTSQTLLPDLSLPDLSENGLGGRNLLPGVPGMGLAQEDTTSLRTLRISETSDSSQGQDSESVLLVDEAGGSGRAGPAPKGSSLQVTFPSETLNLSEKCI
T2 sequence (P43116 whole entry): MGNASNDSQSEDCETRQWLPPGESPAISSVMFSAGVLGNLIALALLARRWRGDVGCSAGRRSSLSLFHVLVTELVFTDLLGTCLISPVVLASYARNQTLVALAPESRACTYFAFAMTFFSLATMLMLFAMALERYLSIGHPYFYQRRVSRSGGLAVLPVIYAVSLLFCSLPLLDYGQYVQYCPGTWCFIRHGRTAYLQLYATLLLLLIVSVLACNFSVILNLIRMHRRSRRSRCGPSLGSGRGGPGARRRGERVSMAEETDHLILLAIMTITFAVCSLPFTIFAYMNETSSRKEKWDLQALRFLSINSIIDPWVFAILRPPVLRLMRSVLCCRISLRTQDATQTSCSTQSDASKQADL

For `COc1ccc(Cl)c2c(CCNc3cc(-c4ccc(C(=O)O)c(OC(C)C)c4)ncn3)c(C)sc12` [Example 98, 4-{6-[2-(4-Chloro-7-methoxy-2-methyl-benzo[b]thiophen-3-yl)-ethylamino]-pyrimidin-4-yl}-2-isopropoxy-benzoic acid], the IC50 (PTGER4 (EP4)) was 340 nM and the IC50 (PTGER2 (EP2)) was 55 nM.
`CCc1nc(-c2cc(NCCc3c(C)sc4c(C)cc(F)cc34)ncn2)sc1-c1noc(=O)[nH]1` [Example 163, 3-(4-Ethyl-2-{6-[2-(5-fluoro-2,7-dimethyl-benzo[b]thiophen-3-yl)-ethylamino]-pyrimidin-4-yl}-thiazol-5-yl)-[1,2,4]oxadiazol-5(4H)-one [tautomeric form: 3-(4-ethyl-2-(6-((2-(5-fluoro-2,7-dimethylbenzo[b]thiophen-3-yl)ethyl)amino)pyrimidin-4-yl)thiazol-5-yl)-[1,2,4]oxadiazol-5-ol]] gave an IC50 (PTGER4 (EP4)) of 17 nM and an IC50 (PTGER2 (EP2)) of 26 nM.
Molecule `Cc1sc2c(C)ccc(F)c2c1CCNc1cc(-c2ccc(C(=O)O)c(OC3CCC3)c2)ncn1` [Example 136, 2-Cyclobutoxy-4-{6-[2-(4-fluoro-2,7-dimethyl-benzo[b]thiophen-3-yl)-ethylamino]-pyrimidin-4-yl}-benzoic acid] has an IC50 (PTGER4 (EP4)) of 155 nM and an IC50 (PTGER2 (EP2)) of 13 nM.
`CCOc1cc(-c2cc(NCCc3c(C)sc4c(C)cccc34)ncn2)ccc1CC(=O)O` [Example 109, (4-{6-[2-(2,7-Dimethyl-benzo[b]thiophen-3-yl)-ethylamino]-pyrimidin-4-yl}-2-ethoxy-phenyl)-acetic acid] showed an IC50 (PTGER4 (EP4)) of 405 nM and an IC50 (PTGER2 (EP2)) of 24 nM.
In the case of `CCOc1cc(-c2cc(NCCc3c(C)sc4c(C)cccc34)ncn2)ccc1C(C)C(=O)O` (racemic) [Example 126, rac-2-(4-{6-[2-(2,7-Dimethyl-benzo[b]thiophen-3-yl)-ethylamino]-pyrimidin-4-yl}-2-ethoxy-phenyl)-propionic acid], the IC50 (PTGER4 (EP4)) is reported as 423 nM and the IC50 (PTGER2 (EP2)) is reported as 104 nM.
Molecule `COc1ccc(F)c2c(CCNc3cc(-c4cc(F)c(C(=O)O)c(OC5CCC5)c4)ncn3)c(C)sc12` [Example 149, 2-Cyclobutoxy-6-fluoro-4-{6-[2-(4-fluoro-7-methoxy-2-methyl-benzo[b]thiophen-3-yl)-ethylamino]-pyrimidin-4-yl}-benzoic acid] has an IC50 (PTGER4 (EP4)) of 67 nM and an IC50 (PTGER2 (EP2)) of 13 nM.
`CCOc1cc(-c2cc(NCCc3c(C)sc4c(C)cc(F)cc34)ncn2)ccc1-c1nnn[nH]1` [Example 142, {6-[3-Ethoxy-4-(1H-tetrazol-5-yl)-phenyl]-pyrimidin-4-yl}-[2-(5-fluoro-2,7-dimethyl-benzo[b]thiophen-3-yl)-ethyl]-amine] gave an IC50 (PTGER4 (EP4)) of 41 nM and an IC50 (PTGER2 (EP2)) of 12 nM.
For `CCCCOc1cc(-c2cc(NCCc3c(C)sc4c(C)cc(F)cc34)ncn2)ccc1C(=O)O` [Example 127, 2-Butoxy-4-{6-[2-(5-fluoro-2,7-dimethyl-benzo[b]thiophen-3-yl)-ethylamino]-pyrimidin-4-yl}-benzoic acid], the IC50 (PTGER4 (EP4)) was 225 nM and the IC50 (PTGER2 (EP2)) was 16 nM.
`CCCOc1cc(-c2cc(NCCc3c(C)sc4c(Cl)ccc(Cl)c34)ncn2)ccc1C(=O)O` [Example 102, 4-{6-[2-(4,7-Dichloro-2-methyl-benzo[b]thiophen-3-yl)-ethylamino]-pyrimidin-4-yl}-2-propoxy-benzoic acid] gave an IC50 (PTGER4 (EP4)) of 810 nM and an IC50 (PTGER2 (EP2)) of 26 nM.
`CCOc1cc(-c2cc(NCCc3c(C#N)sc4c(C)cc(F)cc34)ncn2)ccc1OCCC(=O)O` [Example 176, 3-(4-{6-[2-(2-Cyano-5-fluoro-7-methyl-benzo[b]thiophen-3-yl)-ethylamino]-pyrimidin-4-yl}-2-ethoxy-phenoxy)-propionic acid] gave an IC50 (PTGER4 (EP4)) of 19 nM and an IC50 (PTGER2 (EP2)) of 9 nM.
Work on `CCOc1cc(-c2cc(NCCc3c(C)sc4c(C)cc(F)cc34)ncn2)sc1-c1nnn[nH]1` [Example 158, {6-[4-Ethoxy-5-(1H-tetrazol-5-yl)-thiophen-2-yl]-pyrimidin-4-yl}-[2-(5-fluoro-2,7-dimethyl-benzo[b]thiophen-3-yl)-ethyl]-amine] yielded an IC50 (PTGER4 (EP4)) of 7 nM and an IC50 (PTGER2 (EP2)) of 6 nM.
Work on `CCOc1cc(-c2cc(NCCc3c(C#N)sc4c(OC)cccc34)ncn2)ccc1CC(=O)O` [Example 164, (4-{6-[2-(2-Cyano-7-methoxy-benzo[b]thiophen-3-yl)-ethylamino]-pyrimidin-4-yl}-2-ethoxy-phenyl)-acetic acid] yielded an IC50 (PTGER4 (EP4)) of 50 nM and an IC50 (PTGER2 (EP2)) of 504 nM.
`CCOc1cc(-c2cc(NCCc3c(C)sc4c(C)c(F)ccc34)ncn2)ccc1OCC(=O)O` [Example 119, (2-Ethoxy-4-{6-[2-(6-fluoro-2,7-dimethyl-benzo[b]thiophen-3-yl)-ethylamino]-pyrimidin-4-yl}-phenoxy)-acetic acid] gave an IC50 (PTGER4 (EP4)) of 143 nM and an IC50 (PTGER2 (EP2)) of 21 nM.
`CCOc1cc(-c2cc(NCCc3c(C)sc4c(C)cccc34)ncn2)ccc1OCC(=O)O` [Example 122, (4-{6-[2-(2,7-Dimethyl-benzo[b]thiophen-3-yl)-ethylamino]-pyrimidin-4-yl}-2-ethoxy-phenoxy)-acetic acid] gave an IC50 (PTGER4 (EP4)) of 83 nM and an IC50 (PTGER2 (EP2)) of 14 nM.
In the case of `Cc1cc(-c2cc(NCCc3c(C)oc4ccccc34)ncn2)sc1C(=O)O` [Example 6, 3-Methyl-5-{6-[2-(2-methyl-benzofuran-3-yl)-ethylamino]-pyrimidin-4-yl}-thiophene-2-carboxylic acid], the IC50 (PTGER4 (EP4)) is reported as 673 nM and the IC50 (PTGER2 (EP2)) is reported as 5 nM.
`CCCOc1cc(-c2cc(NCCc3c(C#N)sc4c(C)cc(F)cc34)ncn2)ccc1CC(=O)O` [Example 169, (4-{6-[2-(2-Cyano-5-fluoro-7-methyl-benzo[b]thiophen-3-yl)-ethylamino]-pyrimidin-4-yl}-2-propoxy-phenyl)-acetic acid] showed an IC50 (PTGER4 (EP4)) of 100 nM and an IC50 (PTGER2 (EP2)) of 30 nM.
In the case of `Cc1sc2c(C)cc(F)cc2c1CCNc1cc(-c2ccc(C(=O)O)c(O)c2)ncn1` [Example 10, 4-{6-[2-(5-Fluoro-2,7-dimethyl-benzo[b]thiophen-3-yl)-ethylamino]-pyrimidin-4-yl}-2-hydroxy-benzoic acid], the IC50 (PTGER4 (EP4)) is reported as 1040 nM and the IC50 (PTGER2 (EP2)) is reported as 58 nM.
With `COc1cccc2c(CCNc3cc(-c4ccc(C(=O)O)c(SC)c4)ncn3)c(C#N)sc12` [Example 13, 4-{6-[2-(2-Cyano-7-methoxy-benzo[b]thiophen-3-yl)-ethylamino]-pyrimidin-4-yl}-2-methylsulfanyl-benzoic acid] the IC50 (PTGER4 (EP4)) was 114 nM and the IC50 (PTGER2 (EP2)) was 51 nM.
Molecule `CSc1cc(-c2cc(NCCc3c(C#N)sc4c(C)cc(F)cc34)ncn2)ccc1C(=O)O` [Example 12, 4-{6-[2-(2-Cyano-5-fluoro-7-methyl-benzo[b]thiophen-3-yl)-ethylamino]-pyrimidin-4-yl}-2-methylsulfanyl-benzoic acid] has an IC50 (PTGER4 (EP4)) of 112 nM and an IC50 (PTGER2 (EP2)) of 4 nM.
`CCOc1cc(-c2cc(NCCc3c(C)sc4c(C)cc(F)cc34)ncn2)sc1CCC(=O)O` [Example 97, 3-(3-Ethoxy-5-{6-[2-(5-fluoro-2,7-dimethyl-benzo[b]thiophen-3-yl)-ethylamino]-pyrimidin-4-yl}-thiophen-2-yl)-propionic acid] gave an IC50 (PTGER4 (EP4)) of 84 nM and an IC50 (PTGER2 (EP2)) of 49 nM.
Molecule `Cc1sc2c(C)cccc2c1CCNc1cc(-c2ccc(C(=O)O)c(SCC(C)C)c2)ncn1` [Example 166, 4-{6-[2-(2,7-Dimethyl-benzo[b]thiophen-3-yl)-ethylamino]-pyrimidin-4-yl}-2-isobutylsulfanyl-benzoic acid] has an IC50 (PTGER4 (EP4)) of 254 nM and an IC50 (PTGER2 (EP2)) of 31 nM.
In the case of `CCCc1cc(-c2cc(NCCc3c(C#N)sc4c(C)cc(F)cc34)ncn2)ccc1CC(=O)O` [Example 170, (4-{6-[2-(2-Cyano-5-fluoro-7-methyl-benzo[b]thiophen-3-yl)-ethylamino]-pyrimidin-4-yl}-2-propyl-phenyl)-acetic acid], the IC50 (PTGER4 (EP4)) is reported as 19 nM and the IC50 (PTGER2 (EP2)) is reported as 19 nM.
In the case of `CCCOc1cc(-c2cc(NCCc3c(C)sc4c(C)cc(F)cc34)ncn2)ccc1CC(=O)O` [Example 190, (4-{6-[2-(5-Fluoro-2,7-dimethyl-benzo[b]thiophen-3-yl)-ethylamino]-pyrimidin-4-yl}-2-propoxy-phenyl)-acetic acid], the IC50 (PTGER4 (EP4)) is reported as 200 nM and the IC50 (PTGER2 (EP2)) is reported as 28 nM.
`COc1ccc(F)c2c(CCNc3cc(-c4ccc(C(=O)O)c(OC5CCC5)c4)ncn3)c(C)oc12` [Example 139, 2-Cyclobutoxy-4-{6-[2-(4-fluoro-7-methoxy-2-methyl-benzofuran-3-yl)-ethylamino]-pyrimidin-4-yl}-benzoic acid] showed an IC50 (PTGER4 (EP4)) of 209 nM and an IC50 (PTGER2 (EP2)) of 51 nM.
`CCOc1cc(-c2cc(NCCc3c(C)sc4c(C)c(F)ccc34)ncn2)ccc1CC(=O)O` [Example 112, (2-Ethoxy-4-{6-[2-(6-fluoro-2,7-dimethyl-benzo[b]thiophen-3-yl)-ethylamino]-pyrimidin-4-yl}-phenyl)-acetic acid] gave an IC50 (PTGER4 (EP4)) of 665 nM and an IC50 (PTGER2 (EP2)) of 42 nM.
`CCOc1cc(-c2cc(NCCc3c(C)sc4c(C)ccc(F)c34)ncn2)ccc1CC(=O)O` [Example 107, (2-Ethoxy-4-{6-[2-(4-fluoro-2,7-dimethyl-benzo[b]thiophen-3-yl)-ethylamino]-pyrimidin-4-yl}-phenyl)-acetic acid] showed an IC50 (PTGER4 (EP4)) of 167 nM and an IC50 (PTGER2 (EP2)) of 38 nM.
`Cc1cc(F)cc2c(CCNc3cc(-c4ccc(CC(=O)O)c(OC(C)C)c4)ncn3)c(C#N)sc12` [Example 171, (4-{6-[2-(2-Cyano-5-fluoro-7-methyl-benzo[b]thiophen-3-yl)-ethylamino]-pyrimidin-4-yl}-2-isopropoxy-phenyl)-acetic acid] gave an IC50 (PTGER4 (EP4)) of 57 nM and an IC50 (PTGER2 (EP2)) of 59 nM.
Molecule `CCOc1cc(-c2cc(NCCc3c(C#N)sc4c(C)cc(F)cc34)ncn2)cc(F)c1CC(=O)O` [Example 165, (4-{6-[2-(2-Cyano-5-fluoro-7-methyl-benzo[b]thiophen-3-yl)-ethylamino]-pyrimidin-4-yl}-2-ethoxy-6-fluoro-phenyl)-acetic acid] has an IC50 (PTGER4 (EP4)) of 54 nM and an IC50 (PTGER2 (EP2)) of 28 nM.
